“And” between values parts separate entries of the source, which are not always exact repeats. Equal values may be shown once. “Also recorded” adds a separate entry of the source. Read-outs that look alike come from different tables or passages of the source.
Assays:
[1] = characteristics of acetohydroxamic acid (Table 1), pKa; format: physicochemical
Text: These aliphatic hydroxamic acids including formohydroxamic acid, acetohydroxamic acid, propionohydroxamic acid and isobutyhydroxamic acid. […] This source of hydroxamate groups has the following characteristics: […]

[2] = system: Proteus species; assay: static study in synthetic urine: inhibition of alkalinization by Proteus species; format: cell-based; conditions: for effect on alkalinization: methenamine 0.9 mg/ml
Experimental: (§1) Static studies were conducted to illustrate the synergistic effect achieved in accordance with the present invention through the combined employment of a source of methenamine, i.e., methenamine itself and a source of hydroxamate groups, i.e., acetohydroxamic acid. In order to achieve reproducibility of results with large quantities or urine required for these studies a synthetic urine was formulated based on the proportion of solutes found in the urine from normal human subjects. The composition of such urine was as follows: Brain heart infusion (BHI) broth in a final concentration of 5% was added to support bacterial growth. The pH of the synthetic urine prior to addition of the BHI broth was 5.7 - 5.8. […] In these tests the methenamine was utilized in a final concentration of 0.9 milligrams per milliliter. […] Dally and […], 1969, Analytical BioChem 28:13-21. […] These concentrations which were selected in the static studies were concentrations which would be achievable in the urine of patients with normal renal function. […] At each pH level a set of four tubes was obtained, with these tubes being as follows: 1. Urine alone (control); 2. Urine plus methenamine; 3. Urine plus acetohydroxamic acid; and 4. Urine plus acetohyroxamic acid plus methenamine. […] At varying time intervals aliquots were removed for pH determination and bacterial enumeration by serial tenfold dilution.

[3] = system: Proteus rettgeri; assay: static study in synthetic urine: viable bacteria, Proteus rettgeri (FIG. 2); format: cell-based
Experimental: as §1

[4] = system: Proteus species; assay: static study in synthetic urine: anti-bacterial effect, all Proteus species studied; format: cell-based; conditions: general statement
Experimental: as §1

[5] = system: Proteus rettgeri; assay: dynamic study resembling a Proteus infected human bladder (FIG. 3); format: cell-based
Experimental: Dynamic studies were conducted to further illustrate the synergistic effect associated with the combined presence of a source of methenamine, i.e., methenamine itself and a source of hyroxamate groups, i.e., acetohydroxamic acid in the urine. […] Utilizing a multicassetts roller pump, urine of a pH of 5.85 was pumped at 40 milliliters per hour from three reservoir flasks into three reaction chambers. […] An aqueous solution of 18 milligrams per milliliter of methenamine at a pH of 7.5 was pumped into reaction chambers 1 and 3 at a rate of two milliliters per hour yielding a final concentration of methenamine of 0.9 milligrams per milliliter. […] The reaction chambers contained gently rotating magnetic stirrers and were kept in a warm bath at 37° C. […] At 4 - 6 hour intervals the volume of urine in each reaction chamber was recorded, the pH of each reaction chamber was determined and serial dilutions were carried out for bacterial enumeration.

[6] = system: Proteus; assay: static-dynamic system, bacteriostasis against Proteus, statements over all experiments; format: cell-based, Proteus mirabilis, Proteus rettgeri, Proteus morgani
Experimental: In this example in vitro investigations were carried out using a static-dynamic system delineating (1) bacteriostatic dose-response relation for methenamine against Proteus, and (2) a synergistic bacteriostatic dose-response relation for methenamine and acetohydroxamic acid against Proteus. […] The tubes were placed in a bacteriological incubator at 37° C. […] Incubation of the tubes at 37° and sequential dilutions were made a 6 hour intervals for 24 hours. The variables for each of eight experiments are detailed in Table 2. Bacterial colony forming units (cfu) and urine pH were determined at the beginning and at the completion of each six hour incubation. The cfu units present after six hours of incubation are graphed in FIGS. 4-15. […] When bacteriostatis was absent, the number of cfu after six hours of incubation was equal to or greater than the number of cfu at the beginning of incubation. A strain of Proteus mirabilis isolated from the urine of patients with urinary tract infections was used in most experiments. Overnight growth in brain heart infusion (BHI) broth regularly produced 10^9 cfu/ml. The overnight culture was centrifuged at 3000 rpm for 20 minutes. The supernatant was discharged, and the bacterial pellet was resuspended in an equal volume of synthetic urine. […]

[7] = system: Proteus mirabilis; assay: dynamic model of the urinary tract (FIGS. 16, 17); format: cell-based
Experimental: This example was carried out using a dynamic model as described in connection with Example 2. […] Proteus species, isolated from the urine of patients with known urinary infection, were maintained in the laboratory by monthly transfer on agar […]. These organisms grew to about 10^9 colony forming units (cfu) per ml after overnight growth at 37° C in brain heart infusion broth (BHI). […] The pH of this synthetic urine was 5.85. […] In this dynamic system urine with or without acetohydroxamic acid was pumped at 48 ml/hr from reservoirs via an auto-analyzer pump into reaction chambers which were incubated in a shaking water bath at 37° C. […] Every six hours the reaction chambers were emptied except for a 5 ml residual, and the sequence was repeated. In these experiments the pH, ammonia concentration and cfu per ml urine were determined for each reaction chamber at the end of each six hour period.

[8] = system: Proteus mirabilis; assay: Proteus mirabilis infected bladder stones (zinc disc) in rats; format: in vivo, male Sprague-Dawley rats
Experimental: This example was carried out to illustrate the effectiveness of administering a source of hydroxamate groups, e.g., acetohydroxamic acid in eliminating the pathogenicity of urinary tract infections and in dissolving or reducing infected bladder stones.
The formation of infected bladder stones was induced in 250 gram male Sprague-Dawley rats, according to the method described in "Experimental Urolithiasis VIII -- Furadantin in Treatment of Experimental Proteus Infection with Stone Formation" C. W. Vermuelen and R. Goetz, Journal of Urology, 72:99, 1954. Rats wer anesthetized with ether and the abdominal wall swabbed with 70% ethyl alcohol. The urinary bladder was entered through a small suprapubic incision. Zinc discs, 6 mm. in diameter, were dipped into a saline suspension containing 10^7 Proteus mirabilis per ml (infective discs) and immediately inserted into the bladder. Discs handled in this fashion carried 10^5 ± 15% organisms. The bladder was closed with a single purse-string suture of 3-0 chromic catgut, and the skin was approximated with metallic clips. All animals were fasted overnight following the surgical procedure and resumed their usual diet the following day.
Rats were housed individually in stainless steel metabolic cages and were fed Purina Rat Chow pellets ad lib. Fluid was given in stainless steel cups as a solution of 5-20% sucrose in water.

[9] = system: bacterial urease; conditions: cited from earlier work
[10] = system: urease producing bacteria; conditions: cited from earlier work
[11] = system: Proteus; assay: preliminary investigations in the dynamic system; format: cell-based; conditions: methenamine 0.9 mg/ml
Text: Utilizing a multicassetts roller pump, urine of a pH of 5.85 was pumped at 40 milliliters per hour from three reservoir flasks into three reaction chambers. […] An aqueous solution of 18 milligrams per milliliter of methenamine at a pH of 7.5 was pumped into reaction chambers 1 and 3 at a rate of two milliliters per hour yielding a final concentration of methenamine of 0.9 milligrams per milliliter. […] The reaction chambers contained gently rotating magnetic stirrers and were kept in a warm bath at 37° C.

[12] = system: Proteus mirabilis; assay: static-dynamic system, bacteriostasis against Proteus mirabilis (Experiments A-J); format: cell-based
Experimental: In this example in vitro investigations were carried out using a static-dynamic system delineating (1) bacteriostatic dose-response relation for methenamine against Proteus, and (2) a synergistic bacteriostatic dose-response relation for methenamine and acetohydroxamic acid against Proteus. […] The tubes were placed in a bacteriological incubator at 37° C. […] Incubation of the tubes at 37° and sequential dilutions were made a 6 hour intervals for 24 hours. The variables for each of eight experiments are detailed in Table 2. Bacterial colony forming units (cfu) and urine pH were determined at the beginning and at the completion of each six hour incubation. The cfu units present after six hours of incubation are graphed in FIGS. 4-15. […] When bacteriostatis was absent, the number of cfu after six hours of incubation was equal to or greater than the number of cfu at the beginning of incubation. A strain of Proteus mirabilis isolated from the urine of patients with urinary tract infections was used in most experiments. Overnight growth in brain heart infusion (BHI) broth regularly produced 10^9 cfu/ml. The overnight culture was centrifuged at 3000 rpm for 20 minutes. The supernatant was discharged, and the bacterial pellet was resuspended in an equal volume of synthetic urine. The bacteria were resuspended in synthetic urine to prevent differences in pH as the bacteria were inoculated into tubes of synthetic urine. […] The results are illustrated in FIGS. 4-15 which relates respectively to Experiment A-L of Table 2. Each of FIGS. 4-15 represents colony forming units (cfu) present at the completion of six hour incubations. 100-fold dilutions were made prior to initiating subsequent six hour incubations. Each figure also includes a line representative of theoretically perfect bacteriostasis.

[13] = cited from earlier work
[14] = individual animal, average of day individual values, listed as AHA
[15] = individual animal, listed as AHA

CC(=O)NO [acetohydroxamic acid]
pKa [1]: 9.32 | inhibition of alkalinization ([2]; acetohydroxamic acid 1.9 mg/ml, synthetic urine, 37°): inhibited alkalinizaton for the first eight hours | time within which effect as urease inhibitor was overcome ([2]; acetohydroxamic acid 1.9 mg/ml, bacterial proliferation leading to alkaline pH): ≤ 24 h | bacteriostatic effect ([3]; acetohydroxamic acid 1.9 mg/ml): slight bacteriostatic effect | number of bacteria ([3]; acetohydroxamic acid 1.9 mg/ml, within eight to eighteen hours): ~10^8 per milliliter | anti-bacterial effect with regard to bacteria of the species Proteus [4]: slight anti-bacterial effect | alkalinization ([5]; acetohydroxamic acid 1.9 mg/ml): alkalinization of Proteus was inhibited | bacteriostatic effect ([5]; acetohydroxamic acid 1.9 mg/ml): minor bacteriostatic effect | bacteriostatic effect ([6]; acetohydroxamic acid ≤0.9 mg/ml): no bacteriostatic effect | effect on pH ([7]; acetohydroxamic acid 1 mg/ml without methenamine): maintained the pH at normal levels | bacterial growth ([7]; acetohydroxamic acid, higher concentration 1.0 mg/ml (FIG. 16)): slightly inhibited bacterial growth | urine pH (group) ([8]; acetohydroxamic acid treated animals): remained in the normal range; also recorded: in the physiological range | gross evidence of pyelonephritis or renal stone formation (group) ([8]; autopsy): none had gross evidence of pyelonephritis or renal stone formation | kidney histology (group) ([8]; autopsy): nearly all had normal kidneys histologically | Autopsy Gross Kidney ([8]; individual animal): Normal | Autopsy Urine bacteria/ml ([8]; individual animal): > 10^5 bacteria/ml | survival of animal ([8]; individual animal): Expired | Urine pH [8, 14]: 7.4 and 6.6 and 6.7 and 7.0 and 6.3 and 6.5 and 6.4 | Autopsy Microscopic Kidney [8, 15]: Pyelonephritis; also recorded: Normal | Autopsy Stone Composition [8, 15]: Struvite; also recorded: Apatite | Autopsy Stone wt. [8, 15]: 12 mg and 4 mg and 21 mg and 11 mg and 1 mg and 19 mg and 3 mg and 7 mg | tissue damage and virulence of the disease ([8]; infected rats): tissue damage and virulence of the disease decreased | P, difference in mean urine pH between control and treated groups ([8]; rat, in vivo): < 0.01 | P, difference in stone formation between control and treated groups ([8]; rat, in vivo): < 0.01 | Proteus mirabilis in urine at autopsy (group) ([8]; seventh day): greater than 10^5 per ml | bladder stone formation (group) ([8]; seventh day): minimal; also recorded: significantly less bladder stone formation than the control rats | concentration of acetohydroxamic acid in urine, mean (150 mg offered daily orally, average 100 mg ingested): 2.88 mg/mL | Urine Acetohy. [14]: .3 mg/mL and 1.5 mg/mL and 2.5 mg/mL and 1.3 mg/mL and .9 mg/mL and 1.6 mg/mL and .5 mg/mL | urease inhibiting effect [9]: appear to possess the greatest urease inhibiting effect

O=CNO [formohydroxamic acid]
urease inhibiting effect [9]: appear to possess the greatest urease inhibiting effect

CC(C)C(=O)NO [isobutyhydroxamic acid]
urease inhibiting effect [9]: appear to possess the greatest urease inhibiting effect

C1N2CN3CN1CN(C2)C3 [methenamine mandelate]
effect on overcoming the alkalinization of the urine ([10]; urinary infections produced by urease producing bacteria): no real effect on overcoming the alkalinization of the urine

C1N2CN3CN1CN(C2)C3 [methenamine, hexamethenamine tetramine]
effect on alkalinization ([2]; between pH 5.3 and 6.5): alkalinization was inhibited in proportion to the initial urine acidity | effect on alkalinization ([2]; initial pH less than 5.3): only a slight upward drift was observed | effect on alkalinization ([2]; pH greater than 6.5): did not alter progressive alkalinization | anti-bacterial effect, dependence on initial pH ([3]; methenamine 0.9 mg/ml): proportional to the initial pH | colony count by the end of the second time period and throughout ([5]; methenamine 0.9 mg/ml): greater than 10^7 per milliliter | number of bacteria, first six hours ([5]; methenamine 0.9 mg/ml): fell slightly during the first six hours | pH at the end of each four to eight hour period ([5]; methenamine 0.9 mg/ml): exceeded 8.5 | growth of Proteus and alkalinization of urine versus synthetic urine alone [11]: affected growth of Proteus and alkalinization of urine only slightly | bacteriostatic effect in alkaline urine versus acidic urine ([12]; alkaline urine (FIGS. 12 and 13; experiments I, J)): much less bacteriostatic in alkaline urine | bacteriostatic activity ([12]; methenamine 0.05 mg/ml, pH 5.9, 10^4 /ml and 10^5 /ml (Experiments A, B)): some bacteriostatic activity; also recorded: mild bacteriostatic effect | bacteriostasis ([12]; methenamine 0.05 mg/ml, ≥10^6 /ml Proteus (Experiments C through H)): no bacteriostasis | bacteriostatic activity ([12]; methenamine 0.05 mg/ml, ≥ 10^6 Proteus/ml (FIGS. 4-7)): little or no bacteriostatic activity | bacteriostatic effect compared with methenamine 0.1 mg/ml ([12]; methenamine 0.2 mg/ml (FIGS. 8, 9)): consistently exerted a greater bacteriostatic effect than did methenamine 0.1 mg/ml | bacteriostasis ([12]; methenamine 0.2 mg/ml, acidic urine (Experiments E and F)): bacteriostasis | bacteriostasis ([6]; methenamine 0.1 mg/ml, acidic urine, 10^4 - 10^7 per ml): bacteriostasis | effect on pH ([7]; lower concentrations of methenamine): the pH rapidly became alkaline and remained so throughout | bacterial growth ([7]; methenamine alone 0.5 mg/ml (FIG. 16)): slightly inhibited bacterial growth | effect on pH ([7]; methenamine alone, 0.5 mg/ml): initial tendency for the pH to neutralize in the presence of methenamine alone was overcome by the end of 18-24 hours | release of formaldehyde ([13]; pH 5.0): excellent release of formaldehyde | release of formaldehyde ([13]; pH 5.5): good release of formaldehyde | release of formaldehyde ([13]; pH 6.0): generally adequate for the treatment of most urinary tract infections | conversion and release of formaldehyde ([13]; pH of the urine 6.5): insufficient conversion and release of formaldehyde | effectiveness at alkaline pH ([10]; methenamine alone, typical anti-bacterial dosage, alkaline pH): not effective at an alkaline pH | anti-bacterial effect of the methenamine ([10]; pH of the urine reaches 6.5): totally diminished

CCC(=O)NO [propionohydroxamic acid]
urease inhibiting effect [9]: appear to possess the greatest urease inhibiting effect

Reference: patent US4024256A, “Method and composition for treating urinary tract infections” (priority 1975, dated 1977)
